According to patent publication US11702479B2, “Anti-jagged antibodies and methods of use” (Genentech, Inc., priority 2012, dated 2023):

System: Jagged1-induced signaling through Notch1
Assay: Co-culture Notch reporter (luciferase) assay, Jagged1-induced
Type: cell-based
Conditions: NIH-3T3 co-culture; antibody 0.4-50 μg/ml (Example 4) or 0.016-50 μg/ml (Example 5)
Procedure: To determine whether anti-Jagged antibodies can act as antagonists of Jagged-induced Notch signaling, co-culture experiments were performed essentially as described by Wu et al., Nature 464, 1052-1057 (15 April 2010). NIH-3T3 cells engineered to express Jagged1, as the Notch ligand, were co-cultured with NIH 3T3 cells that stably express Notch1 and that were transiently transfected to express a Notch-responsive TP-1 (12× CSL) firefly luciferase reporter and a constitutively expressed Renilla luciferase reporter (pRL-CMV, Promega).
Antibodies C and D, and their respective affinity-matured descendants, bind to both human and murine Jagged1, and human and murine Jagged2 (e.g., FIG. 10A). […] Signaling was induced by Jagged1 (FIG. 13B, dark gray columns) or by Jagged2 (FIG. 13B, light gray columns) and inhibition was determined as described in Example 4 using the antibodies at concentrations of 0.016-50 μg/ml. Controls included cultures that were not stimulated with ligand and not treated with antibody ([…], Untreated), not stimulated with ligand (FIG. 13B, No Stimulation or 3T3P), treated with 5-10 μg/ml isotype control antibody (FIG. 13B, agD or gD), stimulated with ligand but not treated with antibody (Stim/no AB or No Ab), treated with 5 μM of the gamma-secretase inhibitor DAPT or the DAPT vehicle control of DMSO.

SMILES: C[C@H](NC(=O)Cc1cc(F)cc(F)c1)C(=O)N[C@H]1N=C(c2ccccc2)c2ccccc2N(C)C1=O [Compound E]
- inhibition of Jagged1-induced Notch reporter expression: reduced to background levels
